Experimental data reported in ChEMBL document CHEMBL1782024, “Chisomicines A-C, limonoids from Chisocheton ceramicus” (J Nat Prod, 2011).
Activity calls are given as the source filed them. The calls are words filed in the database; no cut-off is given here.

How the values were obtained:
[1] = Cytotoxicity against mouse J774.1 cells after 2 hrs by MTT assay; assay type: cell-based; settings: j774.1, 2 h
J774.1 = experiment: Inhibition of LPS-induced nitric oxide production in mouse J774.1 cells after 24 hrs by griess assay; assay type: functional, cell-based; settings: for IC50: J774.1, 24 h

Row | IC50 (J774.1) | SMILES | Activity [1] | inhibition (J774.1)
1 | 20.2 µM | C/C=C(\C)C(=O)O[C@@H]1/C=C\C2=C3CC(=O)O[C@@H](c4ccoc4)[C@]3(C)CC[C@@H]2[C@@]2(C)C(=O)C[C@]1(C)[C@@H]2CC(=O)OC [CHISOMICINE A] | Toxic | –
2 | 13.8 mg/L | CNC(=N)NCCC[C@H](N)C(=O)O [TILARGININE] | – | –
3 | – | COC(=O)C[C@H]1C(C)(C)[C@@H]2O[C@@]34C[C@@H]2C(=O)[C@]1(C)[C@H]3CC[C@]1(C)C4CC(=O)O[C@@H]1c1ccoc1 (some centres not stated) | – | inactive
4 | – | C/C=C(\C)C(=O)O[C@@H]1C2C=C3[C@H](CC[C@@]4(C)[C@H](c5ccoc5)OC(=O)C[C@@]34O)[C@@]3(C)[C@@H](CC(=O)OC)[C@@]1(C)CO[C@@]23O | – | inactive
5 | – | C/C=C(\C)C(=O)O[C@@H]1C2[C@H]3O[C@]34[C@@H]3CC(=O)O[C@@H](c5ccoc5)[C@]3(C)CC[C@@H]4[C@@]3(C)[C@@H](CC(=O)OC)[C@@]1(C)C[C@@]23O (some centres not stated) | – | inactive
6 | – | COC(=O)C[C@H]1C(C)(C)[C@H](O)[C@@H]2CC3=C4CC(=O)O[C@@H](c5ccoc5)[C@]4(C)CC[C@@H]3[C@@]1(C)C2=O | – | inactive
